Measurements: patent US20190015397A1, “SUBSTANCE THAT INHIBITS P2Y12 RECEPTOR, FOR USE IN THE PREVENTIVE TREATMENT OF SYSTEMIC SCLEROSIS IN PATIENTS WITH RAYNAUD'S PHENOMENON AND A DYSIMMUNITY” (UNIVERSITÉ DE BORDEAUX, priority 2016, published 2019)
Entries after “also recorded” stand apart in the source; their conditions may differ. Blank lines part the entries; values can stand above or below the compound they belong to.

Tests used:
[1] = biological target: P2Y12 receptor (Homo sapiens, UniProt Q9H244); conditions: cited from earlier work
[2] = system: healthy endothelial cells; test: TSLP production by healthy endothelial cells with platelets treated with acetylsalicylic acid; format: cell-based, human; conditions: doses 0, 10 and 1000 pg/ml
Text: FIG. 8: represents the in vitro TSLP production (pg/ml) by healthy endothelial cells in the presence of platelets from a first healthy non sclerodermic patient a second non sclerodermic patient previously treated with acetylsalicylic acid (aspirin, pg/ml) at a dose of 0, 10 and 1000 pg/ml.
The endothelial TSLP production is not inhibited by healthy patients platelets treated with acetylsalicylic acid (aspirin active metabolite) (see FIG. 8).

[3] = system: human normal microvascular endothelial cells; test: TSLP secretion by endothelial cells co-incubated with platelets from patients treated by P2Y12 inhibitors; format: cell-based; conditions: clopidogrel 75 mg or ticagrelor 90 mg per day; platelets:EC 200:1, 24 hrs, ELISA
Protocol: FIG. 7: represents TSLP secretion (in pg/ml: A, or in %: B) by endothelial cells after stimulation by, from left to right, platelets from healthy donors (HD, n=6), patients treated by clopidogrel (n=3) or by ticagrelor (n=4). […] Supernatants were harvested and frozen before analysis. TSLP concentration was determined by ELISA.
Briefly, platelets purified from healthy normal subject, or non-sclerodermic patients treated with clopidogrel (75 mg par jour), or a non-sclerodermic patient treated with ticagrelor (90 mg par jour), for preventing atherothrombotic events, were co-incubated with human normal microvascular endothelial cells at a 200:1 ratio for 24 hrs. Cell culture supernatant was collected and TSLP content was measured using a dedicated commercial ELISA kit.

[4] = system: bleomycin-injected mice
[5] = system: mice models of scleroderma; conditions: two mice models of scleroderma; cited from earlier work
[6] = system: patients with SSc; conditions: cited from earlier work
[7] = system: human dermal microvascular endothelial cells (HDMEC); test: TSLP production by human dermal microvascular EC stimulated with cytokines/reagents (ELISA, RTqPCR); format: cell-based
Protocol: FIG. 4: IL1β-stimulated human dermal microvascular endothelial cells (HDMEC) produce TSLP. Normal HDMEC were purified from normal skin (plastic surgery) and stimulated 24 hrs with (A) cytokines potentially involved in SSc and the TLR4 agonist LPS or (B) increasing amount of IL1β (from 10 to 50 ng/ml) in complete MV-2 medium (M). Supernatants were harvested and TSLP content was measured by dedicated ELISA from eBioscience. Mean and SD from 3 (A) and 6 (B) independent experiments. (C) Quantification of TSLP mRNA from IL1β (50 ng/mL) activated HDMEC using RTqPCR, one representative experiment out of 3. *P<0.05 and ***P=0.0004 using Kruskal Wallis test.
(§1) (A) 70000 HDMEC were cultured for 24 hrs in 24-well culture plate in MV-2 complete medium along with increasing amount of purified non-activated platelets (white bars) or adenosine diphosphate-activated platelets (black bars) (from 10 to 200 platelets for 1 HDMEC). […] (B) HDMEC were stimulated with ADP-activated platelets with or without anti-IL1β blocking antibody. Condition “platelet-” is a comparison without platelets. […] (C) HDMEC were stimulated with increasing doses of serotonin (from 0 to 90 ng/ml). A Wilcoxon test was used. (*p=0.013). (D) HDMEC were stimulated with ADP-activated platelets (ratio HDMEC:platelets=1:200) with or without blocking anti-IL1β with or without 5HT-receptors (5HTR2a and 5HTR2b) blocking antibodies. […] Supernatants were harvested and TSLP content was measured using dedicated ELISA. Results are mean and SEM from 3 independent experiments.
(§2) TSLP levels in cell culture supernatants or serum was quantified using an ELISA kit from eBiosciences following the manufacturer's instruction.
(§3) Human dermal microvascular EC were cultured in complete MV2 growth medium in a 96 well-plates with flat bottom (20000 cells per well in 200 μl) and allowed to stand overnight before adding different reagents (IL-1β, IL-4, IL-13, TNF-α, IFN-γ, LPS, 5HT or Tryptase) or platelets ADP-activated or not for 24 h at 37° C. […]

[8] = system: human dermal fibroblasts; test: Pro-fibrotic mRNA profile of activated human dermal fibroblasts (RT-qPCR); format: cell-based; conditions: for MMP-1 mRNA expression / collagen1A1 mRNA / collagen/collagenase ratio (COL1A1 on MMP-1 mRNA): HD dermal fibroblasts; for MMP-1 mRNA expression / collagen1A1 mRNA / collagen/collagenase ratio (COL1A1 on MMP-1 mRNA) / MCP-1 mRNA expression: 48 h; for MCP-1 mRNA expression: human dermal fibroblasts
Protocol: Human dermal fibroblasts were isolated from healthy skin and incubated 48 h with DMEM, IL1β, recombinant TSLP or TGFβ1. (A) Quantification of Col1A1 mRNA from activated fibroblasts using RT-qPCR from 3 different healthy donors was expressed in ΔΔCT with DMEM as the baseline condition. (B) Quantification of MMP-1 mRNA from activated fibroblasts using RTqPCR, results of 3 different healthy donors. (C) Ratio of COL1A1 on MMP-1 (collagenase) mRNA from activated normal fibroblasts using RT-qPCR, results of 3 different healthy donors (left panel) and 3 SSc patients (right panel). Among SSc patients, two patients were dcSSc and fibroblasts came from TSLP+ fibrotic skin (patients #1 and 2), the other was a IcSS and fibroblasts came from TSLP-low fibrotic skin (patient #3). (D) Quantification of MCP-1 from activated normal fibroblasts using RT-qPCR, results of 3 different donors. Kruskal Wallis test was used to compare the mean of mRNA expression levels. *P<0.05.
Fibroblasts were obtained from […] skin biopsy samples from 3 healthy donors as described elsewhere (Truchetet M E, Brembilla N C, Montanari E, et al. Interleukin-17A+ cell counts are increased in systemic sclerosis skin and their number is inversely correlated with the extent of skin involvement. Arthritis Rheum 2013; 65:1347-1356 ([24])).
Total RNA was isolated from trypsinized fibroblasts with the NucleoSpin RNA II extraction system (Macherey-Nagel, Duren, Germany) and cDNA synthesized from […] of total RNA using random hexamers and Superscript III reverse transcriptase (Invitrogen, Carlsbad, Calif.) according to manufacturer's instructions. Gene expression was quantified using SYBR green performed on a SDS 7900 HT instrument (Applied Biosystems). Specific primer pairs for each gene described in supplementary material (Datta A, Alexander R, Sulikowski M G, et al. Evidence for a functional thymic stromal lymphopoietin signaling axis in fibrotic lung disease. J Immunol 2013; 191:4867-4879 ([25]); Brembilla N C, Montanari E, Truchetet M E, et al. Th17 cells favor inflammatory responses while inhibiting type I collagen deposition by dermal fibroblasts: differential effects in healthy and systemic sclerosis fibroblasts. Arthritis Res Ther 2013; 15:R151 ([26]); Yoda A, Yoda Y, Chiaretti S, et al. Functional screening identifies CRLF2 in precursor B-cell acute lymphoblastic leukemia. Proc Natl Acad Sci USA 2010; 107:252-257 ([27]); Le Q T, Gomez G, Zhao W, et al. Processing of human protryptase in mast cells involves cathepsins L, B, and C. J Immunol 2011; 187:1912-1918 ([28])). Each reaction was performed in triplicates. […] Oligonucleotides were obtained from Sigma-Aldrich. Differences were calculated with the threshold cycle (Ct) and the comparative Ct method for relative quantification.

[9] = system: human dermal microvascular endothelial cells (HDMEC); test: Platelet-induced TSLP production in platelet/EC co-culture with blocking antibodies; format: cell-based; conditions: ADP-activated platelets
Protocol: as §1, §2, §3

Chain of P2Y12 receptor (Q9H244 whole entry): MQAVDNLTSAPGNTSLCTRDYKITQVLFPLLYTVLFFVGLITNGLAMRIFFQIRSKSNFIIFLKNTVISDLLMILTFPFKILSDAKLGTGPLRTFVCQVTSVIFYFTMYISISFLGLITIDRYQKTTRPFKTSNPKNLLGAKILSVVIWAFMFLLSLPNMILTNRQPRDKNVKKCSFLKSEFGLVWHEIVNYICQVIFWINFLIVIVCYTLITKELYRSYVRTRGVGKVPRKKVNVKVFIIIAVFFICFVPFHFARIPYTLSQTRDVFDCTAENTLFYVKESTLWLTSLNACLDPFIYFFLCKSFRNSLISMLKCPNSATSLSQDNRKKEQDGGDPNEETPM

Compound: CCCSc1nc(N[C@@H]2C[C@H]2c2ccc(F)c(F)c2)c2nnn([C@@H]3C[C@H](O)[C@@H](O)[C@H]3O)c2n1 [AR-C124910XX]
potency of active metabolite relative to ticagrelor [1]: approximately equipotent

Compound: CC(=O)Oc1ccccc1C(=O)O [acetylsalicylic acid]
endothelial TSLP production with acetylsalicylic acid-treated platelets [2]: not inhibited | endothelial TSLP production with acetylsalicylic acid-treated platelets ([2]; listed as aspirin): not observed

Compound: COC(=O)[C@H](c1ccccc1Cl)N1CCc2sccc2C1 [clopidogrel]
TSLP production by endothelial cells induced by platelets of treated patients [3]: failed to induce TSLP production; also recorded: can block the pro-fibrotic TSLP molecule expression | dermal thickness ([4]; clopidogrel 25 mg/kg/d per os from 15 days before bleomycin 30 μg/mice s.c.): reduces the dermal thickness | skin fibrotic effect of Bleomycin ([4]; clopidogrel pre-treatment 25 mg/kg/d per os): significantly reduces | development of digital ulcers ([4]; preventive treatment of mice before the establishment of fibrosis): not associated with development of digital ulcers | fibrosis [5]: reduces fibrosis | markers of endothelial function and new digital ulcers [6]: may worsen markers of endothelial function and associate with development of new digital ulcers

Compound: NCCc1c[nH]c2ccc(O)cc12 [serotonin, reference compound]
TSLP production by dermal microvascular EC ([7]; serotonin at 90 ng/ml, vs 0.75±0.5 pg/ml for EC alone): 58.9 ± 11.4 pg/mL

Compound: CCCSc1nc(N[C@@H]2C[C@H]2c2ccc(F)c(F)c2)c2nnn([C@@H]3C[C@H](OCCO)C(O)C3O)c2n1 (stereo partly drawn) [ticagrelor]
TSLP production by endothelial cells induced by platelets of treated patients [3]: failed to induce TSLP production

Compound: IL1β: pro-inflammatory cytokine used as stimulus
TSLP production by dermal microvascular EC (protein) ([7]; IL1β stimulation 24 hrs, vs 7.4±3.5 pg/ml with dermal microvascular EC alone): 651.7 ± 95.4 pg/mL | TSLP expression at the transcriptomic level ([7]; RTqPCR, IL1β 50 ng/mL): increase the expression of TSLP | MMP-1 mRNA expression [8]: 5.7±1.7 fold increase vs medium condition | collagen1A1 mRNA [8]: 1.7±0.4 fold increase vs medium condition | collagen/collagenase ratio (COL1A1 on MMP-1 mRNA) [8]: 0.47±0.3 fold increase vs medium condition | MCP-1 mRNA expression [8]: 52.7±11.2 fold increase vs medium condition

Compound: TGFβ: cytokine used as control condition on fibroblasts
MMP-1 mRNA expression [8]: 0.56±0.14 fold increase vs medium condition | collagen1A1 mRNA [8]: 5.35±0.9 fold increase vs medium condition | MCP-1 mRNA expression [8]: 0.31±0.09 fold increase vs medium condition

Compound: canakinumab: monoclonal antibody blocking IL-1β
platelet-induced TSLP production ([9]; FIG. 5B, blocking antibody 10 μg/mL, vs 64.8±3.9 pg/ml without antibody): 20.9 ± 3.7 pg/mL | TSLP production in platelet/EC co-culture ([9]; HDMEC:platelets=1:200, FIG. 5D, vs 649±13.8 pg/ml in platelet/EC): 335.1 ± 28.5 pg/mL

collagen/collagenase ratio in SSc fibroblasts ([8]; fibroblasts from TSLP+ fibrotic skin of two dcSSc patients, compared to lcSSc patient or normal fibroblasts): lower collagen/collagenase ratio
Compound: rTSLP: recombinant Thymic Stromal Lymphopoietin
MMP-1 mRNA expression [8]: 0.59±0.06 fold increase vs medium condition | collagen1A1 mRNA [8]: 1.5±0.06 fold increase vs medium condition | collagen/collagenase ratio (COL1A1 on MMP-1 mRNA) [8]: 2.6±0.3 fold increase vs medium condition | MCP-1 mRNA expression [8]: 0.48±0.02 fold increase vs medium condition
